Peptide text beside a SMILES is read from it. * marks the point of attachment. X1 = C[N+](C)(CCCC(=O)*)CCCS(=O)(=O)[O-]
assay: Aqueous solubility of zwitterion-modified hydrophobic peptides in de-ionized water; assay type: physicochemical; conditions: concentration giving a clear solution, peptide labeled at the α-amino group with Z3-PFP
Procedure: Specifically, four representative hydrophobic peptides, penta(phenylalanine), a tetrapeptide with the sequence Phe-Gly-Gly-Phe, penta(leucine) and penta(isoleucine) were all labeled at the α-amino group with the amine-reactive, zwitterionic reagent Z3-PFP (compound 2c in Figure 1). One such labeling experiment is illustrated in Example 12. The zwitterion-modified peptides were purified by chromatography and their aqueous solubility was assessed by dissolving them in de-ionized water at concentrations that gave clear homogenous solutions. […] Penta(phenylalanine) modified by the zwitterion-containing compound Z3-PFP, compound 2c, dissolved in water and provided a clear solution at a concentration of ~0.5 mM.

SMILES | solubility
C[N+](C)(CCCC(=O)N[C@@H](Cc1ccccc1)C(=O)N[C@@H](Cc1ccccc1)C(=O)N[C@@H](Cc1ccccc1)C(=O)N[C@@H](Cc1ccccc1)C(=O)N[C@@H](Cc1ccccc1)C(=O)O)CCCS(=O)(=O)[O-] (X1-FFFFF-OH) | ≥ 500 µM
CC[C@H](C)[C@H](NC(=O)[C@@H](NC(=O)[C@@H](NC(=O)[C@@H](NC(=O)[C@@H](NC(=O)CCC[N+](C)(C)CCCS(=O)(=O)[O-])[C@@H](C)CC)[C@@H](C)CC)[C@@H](C)CC)[C@@H](C)CC)C(=O)O (X1-IIIII-OH) | ≥ 100 µM
CC(C)C[C@H](NC(=O)[C@H](CC(C)C)NC(=O)[C@H](CC(C)C)NC(=O)[C@H](CC(C)C)NC(=O)[C@H](CC(C)C)NC(=O)CCC[N+](C)(C)CCCS(=O)(=O)[O-])C(=O)O (X1-LLLLL-OH) | ≥ 100 µM
C[N+](C)(CCCC(=O)N[C@@H](Cc1ccccc1)C(=O)NCC(=O)NCC(=O)N[C@@H](Cc1ccccc1)C(=O)O)CCCS(=O)(=O)[O-] (X1-FGGF-OH) | ≥ 3000 µM
